The IC50 is the concentration that gives 50% inhibition.

The results in this text go back to article PMC9506420, “Biological Evaluation of 3-Azaspiro[Bicyclo[3.1.0]Hexane-2,5′-Pyrimidines] as Potential Antitumor Agents” (International Journal of Molecular Sciences, 2022).

Common to all, as to type: cell-based
Assay [1] has as its system mouse colon carcinoma (CT26) cell line. Description: MTS antiproliferative (cytotoxicity) assay, CT26. Conditions: for SI (selectivity index), CT26: Vero as reference cell line. On the procedure:
(§1) The cytotoxicity of synthesized 3-azaspiro[bicyclo[3.1.0]hexane-2,5′-pyrimidines] 4 against human erythroleukemia (K562), cervical carcinoma (HeLa), and T lymphocyte (Jurkat), as well as mouse colon carcinoma (CT26) and African green monkey kidney epithelial (Vero) cell lines as reference, was evaluated in vitro by the standard MTS assay for 24 and 72 h.
(§2) All the cell lines (human cervical carcinoma (HeLa), erythroleukemia (K-562), and T lymphocyte (Jurkat) as well as mouse colon carcinoma (CT26) and African green monkey kidney epithelial (Vero)) were obtained from the cell repository “Vertebrate cell culture collection” (supported by the Ministry of Science and Higher Education of the Russian Federation, agreement №075-15-2021-683, Institute of Cytology, Russian Academy of Sciences, Saint Petersburg, Russia). HeLa, Jurkat, and Vero cells were cultured in DMEM (HyClone, South Logan, UT, USA) supplemented with 10% (v/v) fetal bovine serum (Hyclone, GE Healthcare Life Sciences, Logan, UT, USA), and gentamicin (Sigma-Aldrich, St. Louis, MO, USA) at 37 °C in a humidified atmosphere with 5% CO2. K-562 and CT26 cells were grown at RPMI medium (Hyclone, GE Healthcare Life Sciences, Logan, UT, USA), with the same supplements and conditions.
(§3) To evaluate the in vitro toxicity of compounds synthesized, cells were seeded into 96-well plates at a density of 5 × 10^3 cells per well. On the next day, tested compounds were added to the wells at concentrations ranging from […], followed by incubation for 1 and 3 days. Cell proliferation was determined by adding 20 μL of MTS reagent (BioVision, Milpitas, CA, USA) stock solution per well. Each plate was incubated for 2 h at 37 °C in a humidified, 5% CO2 atmosphere. The plates were then read at 495 nm using plate spectrophotometer (Multiskan GO, Thermo Fisher Scientific, Waltham, MA, USA). All samples were measured in triplicates.

The subject of assay [2] is human cervical carcinoma (HeLa) cell line. Description: MTS antiproliferative (cytotoxicity) assay, HeLa. The following applies: for SI (selectivity index), HeLa: Vero as reference cell line. On the procedure:
as §1, §2, §3

Assay [3] has as its system African green monkey kidney epithelial (Vero) cell line. The experiment in a line: MTS antiproliferative (cytotoxicity) assay, Vero (reference). On the procedure:
as §1, §2, §3

Assay [4] concerns human erythroleukemia (K562) cell line. Description: MTS antiproliferative (cytotoxicity) assay, K562. The following applies: for SI (selectivity index), K562: Vero as reference cell line. On the procedure:
as §1, §2, §3

In assay [5] the test system is human T lymphocyte (Jurkat) cell line. The experiment in a line: MTS antiproliferative (cytotoxicity) assay, Jurkat. Conditions: for IC50: Homo sapiens, MTS. On the procedure:
(§4) The cytotoxicity of synthesized 3-azaspiro[bicyclo[3.1.0]hexane-2,5′-pyrimidines] 4 against human erythroleukemia (K562), cervical carcinoma (HeLa), and T lymphocyte (Jurkat), as well as mouse colon carcinoma (CT26) and African green monkey kidney epithelial (Vero) cell lines as reference, was evaluated in vitro by the standard MTS assay for 24 and 72 h. The results are presented in Figure 1, Figure 2, Figure 3, Figure 4 and Figure 5 (data on all, tested on K562, HeLa, and CT26 cell lines’ compounds, are given at SI, Figures S1–S3). […] Replacement of the phenyl group by either the carboxymethyl or N-isopropylcarbamoyl group has led to a significant decrease in the activity of spiro-fused cycloadducts comprising azabicyclo[3.1.0]hexane and alloxane moieties.
as §2, §3

For assay [6], the system named is K562, Jurkat, HeLa, CT26 and Vero cell lines. Description: MTS antiproliferative screening, all tested cell lines. Conditions: compared with phenyl substituted adducts. On the procedure:
as §4, with “moieties. […]” for “moieties.”
To evaluate the in vitro toxicity of compounds synthesized, cells were seeded into 96-well plates at a density of 5 × 10^3 cells per well. […] Cell proliferation was determined by adding 20 μL of MTS reagent (BioVision, Milpitas, CA, USA) stock solution per well. […] The plates were then read at 495 nm using plate spectrophotometer (Multiskan GO, Thermo Fisher Scientific, Waltham, MA, USA). All samples were measured in triplicates.

Where [7] appears, read: Mus musculus, CT26, 24 h, read-out: IC50, CT26, 24 h.
Where [8] appears, read: Mus musculus, CT26, 72 h, read-out: IC50, CT26, 72 h.
Setting [9] is: Homo sapiens, HeLa, 24 h, read-out: IC50, HeLa, 24 h.
[10] abbreviates: Homo sapiens, HeLa, 72 h, read-out: IC50, HeLa, 72 h.
Where [11] appears, read: Chlorocebus sabaeus, Vero, 24 h, read-out: IC50, Vero, 24 h.
The mark [12] stands for this setting: Chlorocebus sabaeus, Vero, 72 h, read-out: IC50, Vero, 72 h.
The mark [13] stands for this setting: Homo sapiens, K562, 24 h, read-out: IC50, K562, 24 h.
The mark [14] stands for this setting: Homo sapiens, K562, 72 h, read-out: IC50, K562, 72 h.

Like-named read-outs stand apart in the source and are kept apart here.

With `N.N.[Cl][Pt][Cl]` [Cisplatin, reference compound], in assay [1] (CT26), the “SI (selectivity index), CT26” value is listed as 0.8. For the same compound, the IC50 worked out at 24 ± 4 µM in assay [1] (MTS, 24 h, read-out: IC50, CT26, 24 h); 5 ± 1 µM in assay [1] (MTS, 72 h, read-out: IC50, CT26, 72 h); 16 ± 4 µM in assay [2] (MTS, 24 h, read-out: IC50, HeLa, 24 h); 6 ± 1 µM in assay [2] (MTS, 72 h, read-out: IC50, HeLa, 72 h); 14 ± 1 µM in assay [3] (MTS, 24 h, read-out: IC50, Vero, 24 h); 4 ± 1 µM in assay [3] (MTS, 72 h, read-out: IC50, Vero, 72 h). For the same compound, the IC50 in assay [4] (MTS, 24 h, read-out: IC50, K562, 24 h) came out at 46 ± 8 µM; in assay [4] (MTS, 72 h, read-out: IC50, K562, 72 h), 14 ± 2 µM. In addition, in assay [2] (HeLa), the “SI (selectivity index), HeLa” value was 0.7. Moreover, the “SI (selectivity index), K562” value in assay [4] (K562) is reported as 0.3.
On to `COc1cccc2c1C(=O)c1c(O)c3c(c(O)c1C2=O)C[C@@](O)(C(=O)CO)C[C@@H]3O[C@H]1C[C@H](N)[C@H](O)[C@H](C)O1` [Doxorubicin, reference compound], for which, in assay [1] (CT26), the “SI (selectivity index), CT26” value is on record as 0.5. The IC50 turned out to be 19 ± 3 µM in assay [1] (Mus musculus, CT26, MTS, 24 h, read-out: IC50, CT26, 24 h); 5.5 ± 0.3 µM in assay [1] (Mus musculus, CT26, MTS, 72 h, read-out: IC50, CT26, 72 h); 4 ± 1 µM in assay [2] (Homo sapiens, HeLa, MTS, 24 h, read-out: IC50, HeLa, 24 h); 0.5 ± 0.1 µM in assay [2] (Homo sapiens, HeLa, MTS, 72 h, read-out: IC50, HeLa, 72 h); 13 ± 2 µM in assay [3] (Chlorocebus sabaeus, Vero, MTS, 24 h, read-out: IC50, Vero, 24 h); 2.4 ± 0.4 µM in assay [3] (Chlorocebus sabaeus, Vero, MTS, 72 h, read-out: IC50, Vero, 72 h). For the same compound, the IC50 in assay [4] (Homo sapiens, K562, MTS, 24 h, read-out: IC50, K562, 24 h) was determined as 16 ± 3 µM; in assay [4] (Homo sapiens, K562, MTS, 72 h, read-out: IC50, K562, 72 h), 1.2 ± 0.3 µM. Further, the “SI (selectivity index), HeLa” value in assay [2] (HeLa) was 4.8. Besides, in assay [4] (K562), the “SI (selectivity index), K562” value came to 2.0.
Turning to `O=C1NC(=O)C2(NC[C@@]3(c4ccccc4)[C@H](c4ccccc4)[C@@]23c2ccccc2)C(=O)N1` [Compound 4a], in assay [1] (CT26), the “SI (selectivity index), CT26” value stood at 0.3. Besides, the half-maximal inhibitory concentration (IC50) in assay [1] (setting [7]) was 64 ± 7 µM; in assay [1] (setting [8]), 50 ± 7 µM; in assay [5] (24 h, read-out: IC50, Jurkat, 24 h), 24 ± 2 µM; in assay [5] (72 h, read-out: IC50, Jurkat, 72 h) it was 19 ± 5 µM; in assay [2] (setting [9]), 125 ± 18 µM; in assay [2] (setting [10]), 70 ± 4 µM. The concentration for half-maximal inhibition (IC50) in assay [3] (setting [11]) was found to be 50 ± 14 µM; in assay [3] (setting [12]) it was 14 ± 2 µM; in assay [4] (setting [13]), 47 ± 8 µM; in assay [4] (setting [14]), 14 ± 1 µM. In addition, the “SI (selectivity index), Jurkat” value in assay [5] (Vero as reference cell line) turned out to be 0.8. Also, the “relative antiproliferative activity (structure-activity comparison)” value in assay [6] is “less active”. Moreover, the “SI (selectivity index), HeLa” value in assay [2] (HeLa) came out at 0.2. In addition, the “SI (selectivity index), K562” value in assay [4] (K562) is reported as 1.0.
Take `C[C@@H]1NC2(C(=O)NC(=O)NC2=O)[C@]2(c3ccccc3)[C@@H](c3ccccc3)[C@]12c1ccccc1` [Compound 4b]: the “SI (selectivity index), CT26” value in assay [1] (CT26) worked out at 1.0. Moreover, the IC50 in assay [1] (setting [7]) came to 30 ± 2 µM; in assay [1] (setting [8]) it was 21 ± 2 µM; in assay [2] (setting [9]), 34 ± 2 µM; in assay [2] (setting [10]), 18 ± 2 µM; in assay [3] (setting [11]) it was 55 ± 7 µM; in assay [3] (setting [12]) it was 21 ± 2 µM. The IC50 was 25 ± 5 µM in assay [4] (setting [13]) and 9 ± 2 µM in assay [4] (setting [14]). Further, the “SI (selectivity index), HeLa” value in assay [2] (HeLa) is recorded as 1.2. In addition, the “SI (selectivity index), K562” value in assay [4] (K562) is 2.4.
